From BindingDB's records for doi:10.1021/jm010237l (Abbott Laboratories, 2001) come the findings set out here.

For this assay, the target named is Endothelin receptor type B (Sus scrofa) (UniProt P35463). Put plainly: Binding affinity against endothelin B receptor in porcine cerebellar tissue.
Chain of Endothelin receptor type B (Sus scrofa) (P35463 whole entry, looked up): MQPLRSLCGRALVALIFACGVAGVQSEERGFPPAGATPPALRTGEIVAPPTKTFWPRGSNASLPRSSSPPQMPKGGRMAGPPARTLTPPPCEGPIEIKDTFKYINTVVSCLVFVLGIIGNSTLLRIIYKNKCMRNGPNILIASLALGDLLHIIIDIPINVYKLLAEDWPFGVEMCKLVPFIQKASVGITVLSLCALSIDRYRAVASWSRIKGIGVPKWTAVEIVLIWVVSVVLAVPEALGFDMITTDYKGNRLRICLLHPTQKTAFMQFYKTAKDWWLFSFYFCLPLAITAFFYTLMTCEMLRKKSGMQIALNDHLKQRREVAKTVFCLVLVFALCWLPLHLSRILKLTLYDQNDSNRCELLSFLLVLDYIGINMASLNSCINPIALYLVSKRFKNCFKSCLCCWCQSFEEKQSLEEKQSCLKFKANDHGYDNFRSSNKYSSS

Broadly, the IC50 is the concentration needed to halve the response being measured. Take `CCCCN(CCCC)C(=O)CN1C[C@H](c2ccc3c(c2)OCC3)[C@@H](C(=O)O)[C@@H]1c1ccc(OC)cc1` [1-Dibutylcarbamoylmethyl-4-(2,3-dihydro-benzofuran-6-yl)-2-(4-methoxy-phenyl)-pyrrolidine-3-carboxylic acid]: the IC50 was 0.96 µM.
In turn, `CCCCN(CCCC)C(=O)CN1C[C@H](c2ccc3c(c2)OCCO3)[C@@H](C(=O)O)[C@@H]1c1ccc(CC)cc1` [1-Dibutylcarbamoylmethyl-4-(2,3-dihydro-benzo[1,4]dioxin-6-yl)-2-(4-ethyl-phenyl)-pyrrolidine-3-carboxylic acid] displayed an IC50 of 7.7 µM.
For `CCCCN(CCCC)C(=O)CN1C[C@H](c2ccc3c(c2)CCO3)[C@@H](C(=O)O)[C@@H]1c1ccc(C)cc1` [1-Dibutylcarbamoylmethyl-4-(2,3-dihydro-benzofuran-5-yl)-2-p-tolyl-pyrrolidine-3-carboxylic acid], the IC50 amounted to 12 µM.
`CCCCN(CCCC)C(=O)CN1C[C@H](c2ccc3c(c2)OCO3)[C@@H](C(=O)O)[C@@H]1c1ccc(CCC)cc1` [4-Benzo[1,3]dioxol-5-yl-1-dibutylcarbamoylmethyl-2-(4-propyl-phenyl)-pyrrolidine-3-carboxylic acid] had an IC50 of 1.13 µM.
The compound `CCCCN(CCCC)C(=O)CN1C[C@H](c2ccc3c(c2)OCO3)[C@@H](C(=O)O)[C@@H]1c1ccc(OC)c(F)c1` [4-Benzo[1,3]dioxol-5-yl-1-dibutylcarbamoylmethyl-2-(3-fluoro-4-methoxy-phenyl)-pyrrolidine-3-carboxylic acid] returned an IC50 of 0.03 µM.
The figure for `CCCCN(CCCC)C(=O)CN1C[C@H](c2ccc3c(c2)OCO3)[C@@H](C(=O)O)[C@@H]1c1ccc(F)c(F)c1` [4-Benzo[1,3]dioxol-5-yl-1-dibutylcarbamoylmethyl-2-(3,4-difluoro-phenyl)-pyrrolidine-3-carboxylic acid] is 1.04 µM; for `CCCCN(CCCC)C(=O)CN1C[C@H](c2ccc3c(c2)OCO3)[C@@H](C(=O)O)[C@@H]1c1ccc(CC)cc1` [4-Benzo[1,3]dioxol-5-yl-1-dibutylcarbamoylmethyl-2-(4-ethyl-phenyl)-pyrrolidine-3-carboxylic acid] it is 1.3 µM.
Under `CCCCN(CCCC)C(=O)CN1C[C@H](c2ccc3c(c2)CCO3)[C@@H](C(=O)O)[C@@H]1c1ccc(OC)cc1` [(2R,3R,4S)-1-Dibutylcarbamoylmethyl-4-(2,3-dihydro-benzofuran-5-yl)-2-(4-methoxy-phenyl)-pyrrolidine-3-carboxylic acid] stands 2.67 µM; under `CCCCN(CCCC)C(=O)CN1C[C@H](c2ccc3c(c2)OCO3)[C@@H](C(=O)O)[C@@H]1c1ccc(OC)c(OC)c1` [4-Benzo[1,3]dioxol-5-yl-1-dibutylcarbamoylmethyl-2-(3,4-dimethoxy-phenyl)-pyrrolidine-3-carboxylic acid], 0.3 µM.
`CCCCN(CCCC)C(=O)CN1C[C@H](c2ccc3c(c2)CCO3)[C@@H](C(=O)O)[C@@H]1c1ccc(CC)cc1` [1-Dibutylcarbamoylmethyl-4-(2,3-dihydro-benzofuran-5-yl)-2-(4-ethyl-phenyl)-pyrrolidine-3-carboxylic acid] showed an IC50 of 8.13 µM.
In turn, `CCCCN(CCCC)C(=O)CN1C[C@H](c2ccc3c(c2)OCO3)[C@@H](C(=O)O)[C@@H]1c1ccc(C(F)(F)F)cc1` [4-Benzo[1,3]dioxol-5-yl-1-dibutylcarbamoylmethyl-2-(4-trifluoromethyl-phenyl)-pyrrolidine-3-carboxylic acid] gave an IC50 of 14.3 µM.
Consider `CCCCN(CCCC)C(=O)CN1C[C@H](c2ccc3c(c2)OCO3)[C@@H](C(=O)O)[C@@H]1c1ccc(C)cc1` [4-Benzo[1,3]dioxol-5-yl-1-dibutylcarbamoylmethyl-2-p-tolyl-pyrrolidine-3-carboxylic acid], for which the IC50 came out at 2.14 µM.
As for `CCCCN(CCCC)C(=O)CN1C[C@H](c2ccc3occc3c2)[C@@H](C(=O)O)[C@@H]1c1ccc(OC)cc1` [4-Benzofuran-5-yl-1-dibutylcarbamoylmethyl-2-(4-methoxy-phenyl)-pyrrolidine-3-carboxylic acid], the IC50 turned out to be 5.08 µM.
